Where two headings read alike, the source gives them in different places. Blank lines part the entries; values can stand above or below the compound they belong to.
Molecular target: T1, CFTR (Homo sapiens, UniProt P13569, DEL508-508)
T1 construct: endogenous in cells; host or cells: primary human bronchial epithelial cells from CF subjects (F508del/MF-HBE), differentiated at air-liquid interface
Test: HBE assay: Ussing chamber assay of CFTR-mediated short-circuit currents
Assay type: cell-based
Conditions: for EC50: read-out: HBE EC50
Description: 1. Ussing Chamber Assay of CFTR-Mediated Short-Circuit Currents
(§1) Ussing chamber experiments were performed using human bronchial epithelial (HBE) cells derived from CF subjects heterozygous for F508del and a minimal function CFTR mutation (F508del/MF-HBE) and cultured as previously described (Neuberger T, Burton B, Clark H, Van Goor F Methods Mol Biol 2011:741:39-54). After four days the apical media was removed, and the cells were grown at an air liquid interface for >14 days prior to use.
(§2) To isolate the CFTR-mediated short-circuit (ISC) current, F508del/MF-HBE grown on Costar® Snapwell™ cell culture inserts were mounted in an Ussing chamber and the transepithelial ISC was measured under voltage-clamp recording conditions (Vhold=0 mV) at 37° C. The basolateral solution contained (in mM) 145 NaCl, 0.83 K2HPO4, 3.3 KH2PO4, 1.2 MgCl2, 1.2 CaCl2), 10 Glucose, 10 HEPES (pH adjusted to 7.4 with NaOH) and the apical solution contained (in mM) 145 NaGluconate, 1.2 MgCl2, 1.2 CaCl2), 10 glucose, 10 HEPES (pH adjusted to 7.4 with NaOH) and 30 μM amiloride to block the epithelial sodium channel. Forskolin (20 μM) was added to the apical surface to activate CFTR, followed by apical addition of a CFTR inhibitor cocktail consisting of BPO, GlyH-101, and CFTR inhibitor 172 (each at 20 μM final assay concentration) to specifically isolate CFTR currents. The CFTR-mediated ISC (μA/cm^2) for each condition was determined from the peak forskolin response to the steady-state current following inhibition.
2. Identification of Corrector Compounds
The activity of the CFTR corrector compounds on the CFTR-mediated ISC was determined in Ussing chamber studies as described above. The F508del/MF-HBE cell cultures were either incubated with the corrector compounds at a range of concentrations in combination with 1 μM Ivacaftor or were incubated with the corrector compounds at a single fixed concentration of 10 μM in combination with 1 μM Ivacaftor for 18-24 hours at 37° C. and in the presence of 20% human serum. The concentration of corrector compounds with 1 μM Ivacaftor during the 18-24 hours incubations was kept constant throughout the Ussing chamber measurement of the CFTR-mediated ISC to ensure compounds were present throughout the entire experiment.
Ussing Chamber Assay of CFTR-mediated short-circuit currents
as §1, with “(HIBE)” for “(HBE)”, “(F508del/MIF-HIBE)” for “(F508del/MF-HBE)”
as §2, with “KH2PO4,” for “K2HPO4,”
Identification of Corrector Compounds

[1] = Table 11, read-out: HBE Max Activity (%)
[2] = Table 12, read-out: HBE Max Activity (%)
[3] = Table 12, read-out: HBE Activity at 10 μM (%)
[4] = Table 10, read-out: HBE activity at 10 (μM) (%)
[5] = Table 10, read-out: HBE Max activity (%)
[6] = Table 13, read-out: HBE Activity at 10 μM (%)
[7] = HBE assay, read-out: HBE Max activity (%)
[8] = Table 11, read-out: HBE Activity at 10 μM (%)

T1 sequence (P13569 with tags, fused parts or gaps DEL508-508): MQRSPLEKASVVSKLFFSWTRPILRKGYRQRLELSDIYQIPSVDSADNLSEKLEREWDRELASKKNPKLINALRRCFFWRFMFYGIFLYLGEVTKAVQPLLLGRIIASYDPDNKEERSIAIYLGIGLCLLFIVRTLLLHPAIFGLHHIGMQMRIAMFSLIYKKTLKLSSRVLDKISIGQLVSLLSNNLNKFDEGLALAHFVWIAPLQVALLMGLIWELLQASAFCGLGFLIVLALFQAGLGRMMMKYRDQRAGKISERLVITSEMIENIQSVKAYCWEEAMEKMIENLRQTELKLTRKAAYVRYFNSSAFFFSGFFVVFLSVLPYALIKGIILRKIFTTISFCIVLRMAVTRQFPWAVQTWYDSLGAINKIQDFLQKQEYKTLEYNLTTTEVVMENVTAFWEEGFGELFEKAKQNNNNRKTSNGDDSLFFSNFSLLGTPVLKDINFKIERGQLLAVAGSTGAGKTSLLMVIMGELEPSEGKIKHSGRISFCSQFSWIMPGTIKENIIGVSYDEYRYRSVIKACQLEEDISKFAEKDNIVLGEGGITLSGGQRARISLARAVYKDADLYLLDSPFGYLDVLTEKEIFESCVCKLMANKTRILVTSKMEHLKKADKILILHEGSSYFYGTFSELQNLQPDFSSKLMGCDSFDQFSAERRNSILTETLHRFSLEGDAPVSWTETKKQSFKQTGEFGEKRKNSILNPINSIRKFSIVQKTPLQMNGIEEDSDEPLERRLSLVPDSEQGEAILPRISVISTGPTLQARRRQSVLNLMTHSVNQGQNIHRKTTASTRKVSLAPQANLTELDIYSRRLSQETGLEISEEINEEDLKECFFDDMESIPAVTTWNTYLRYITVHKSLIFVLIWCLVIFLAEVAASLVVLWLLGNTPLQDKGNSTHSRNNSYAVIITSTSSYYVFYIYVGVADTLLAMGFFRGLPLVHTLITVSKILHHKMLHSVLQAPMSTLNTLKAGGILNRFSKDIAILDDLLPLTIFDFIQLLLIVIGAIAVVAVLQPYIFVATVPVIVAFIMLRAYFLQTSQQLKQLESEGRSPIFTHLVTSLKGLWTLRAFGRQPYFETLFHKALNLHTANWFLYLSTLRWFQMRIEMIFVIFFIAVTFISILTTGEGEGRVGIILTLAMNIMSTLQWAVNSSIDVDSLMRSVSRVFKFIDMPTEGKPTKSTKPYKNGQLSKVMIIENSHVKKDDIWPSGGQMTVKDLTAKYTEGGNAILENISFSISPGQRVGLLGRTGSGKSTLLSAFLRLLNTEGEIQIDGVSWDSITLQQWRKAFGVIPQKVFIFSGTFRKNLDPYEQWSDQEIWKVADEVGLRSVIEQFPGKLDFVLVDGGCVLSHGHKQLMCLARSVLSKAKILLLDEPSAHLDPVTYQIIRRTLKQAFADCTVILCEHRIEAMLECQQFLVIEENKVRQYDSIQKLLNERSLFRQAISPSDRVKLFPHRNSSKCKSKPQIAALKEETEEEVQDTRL

- EC50 (Table 11): < 1000 nM
- Emax [1]: > 60%
Compound: Cc1cccc(C)c1-c1cc2nc(n1)NS(=O)(=O)c1cccc(c1)C(=O)N(Cc1cncc(N(C)CC(C)(C)C)n1)[C@H](CC(C)(C)C)CO2 [Compound 62, (11R)-6-(2,6-Dimethylphenyl)-11-(2,2-dimethylpropyl)-12-({6-[(2,2-dimethylpropyl)(methyl)amino]pyrazin-2-yl}methyl)-9-oxa-2λ^6-thia-3,5,12,19-tetraazatricyclo[12.3.1.14,8]nonadeca-1(18),4,6,8(19),14,16-hexaene-2,2,13-trione]

- EC50 (Table 11): < 1000 nM
- Emax [1]: > 60%
Compound: Cc1cccc(C)c1-c1cc2nc(n1)NS(=O)(=O)c1cccc(c1)C(=O)N(CC1CCC(C)(C)CO1)[C@H](CC(C)(C)C)CO2 (single isomer, unassigned) [Compound 22]

- EC50 (Table 12): < 1000 nM
- Emax [2]: > 60%
Compound: Cc1cccc(C)c1-c1cc2nc(n1)NS(=O)(=O)c1cccc(c1)C(=O)N(Cc1ncc(OC3CCCC3)cn1)[C@H](CC(C)(C)C)CO2 [Compound 566]

- EC50 (Table 11): 1000 to 3000 nM
- Emax [1]: > 60%
Compound: Cc1cccc(C)c1-c1cc2nc(n1)NS(=O)(=O)c1cccc(c1)C(=O)N(Cc1ncc(C3CCCC3)cn1)[C@H](CC(C)(C)C)CO2 [Compound 638]

- EC50 (Table 12): < 1000 nM
- Emax [2]: > 60%
Compound: COC[C@@H](C)N(C)c1ccnc(CN2C(=O)c3cccc(c3)S(=O)(=O)Nc3nc(cc(-c4c(C)cccc4C)n3)OC[C@H]2CC(C)(C)C)n1 [Compound 446]

- activation at 10 µM [3]: > 600%
Compound: Cc1cccc(C)c1-c1cc2nc(n1)NS(=O)(=O)c1cccc(c1)C(=O)N(Cc1cccc(N3CC(C(C)(C)C)CC3(C)C)n1)[C@H](CC(C)(C)C)CO2 (stereo partly shown) [Compound 877]

- EC50 (Table 11): < 1000 nM
- Emax [1]: > 60%
Compound: Cc1cccc(C)c1-c1cc2nc(n1)NS(=O)(=O)c1cccc(c1)C(=O)N(Cc1cccc(N3CCCC3)n1)[C@H](CC(C)(C)C)CO2 [Compound 630]

- activation at 10 µM [3]: > 600%
Compound: Cc1cccc(C)c1-c1cc2nc(n1)NS(=O)(=O)c1cccc(c1)C(=O)N(Cc1ccc3nc(NC(=O)CC(C)C)sc3c1)[C@H](CC(C)(C)C)CO2 [Compound 697]

- activation at 10 µM [3]: > 600%
Compound: Cc1cccc(C)c1-c1cc2nc(n1)NS(=O)(=O)c1cccc(c1)C(=O)N(Cc1ccc(OC(C)C)nc1)[C@H](CC(C)(C)C)CO2 [Compound 880]

- activation at 10 µM [4]: > 60%
- EC50 (Table 10): < 1000 nM
- Emax [5]: > 60%
Compound: Cc1cccc(C)c1-c1cc2nc(n1)NS(=O)(=O)c1cccc(c1)C(=O)N(Cc1cccc(N(C)C)n1)[C@H](CC(C)(C)C)CO2 [Compound 491]

- activation at 10 µM [3]: > 600%
Compound: Cc1cccc(C)c1-c1cc2nc(n1)NS(=O)(=O)c1cccc(c1)C(=O)N(Cc1cncc(N3CCC[C@H]3C)c1)[C@H](CC(C)(C)C)CO2 [Compound 284]

- activation at 10 µM [6]: > 600%
Compound: Cc1cccc(C)c1-c1cc2nc(n1)NS(=O)(=O)c1cccc(c1)C(=O)N(CC(=O)N1CCC(N(C)C)CC1)[C@H](CC(C)(C)C)CO2 [Compound 186]

- EC50 (HBE assay): < 1000 nM
- Emax [7]: > 60%
Compound: CCO[C@H]1C[C@@H](Oc2cnc(CN3C(=O)c4cccc(c4)S(=O)(=O)Nc4nc(cc(-c5c(C)cccc5C)n4)OC[C@H]3CC(C)C)nc2)C1 [Compound 1461]

- EC50 (HBE assay): < 1000 nM
- Emax [7]: > 60%
Compound: Cc1ccc(N2CCCC2C)nc1CN1C(=O)c2cccc(c2)S(=O)(=O)Nc2nc(cc(-c3c(C)cccc3C)n2)OC[C@H]1CC(C)(C)C (stereo in doubt) [Compound 1346]

- activation at 10 µM [8]: > 60%
Compound: Cc1cccc(C)c1-c1cc2nc(n1)NS(=O)(=O)c1cccc(c1)C(=O)N(CC1CCCC(C)(C)O1)[C@H](CC(C)(C)C)CO2 (single isomer, unassigned) [Compound 19]

- EC50 (Table 10): < 1000 nM
- Emax [5]: > 60%
Compound: COCCNc1cccnc1CN1C(=O)c2cccc(c2)S(=O)(=O)Nc2nc(cc(-c3c(C)cccc3C)n2)OC[C@H]1CC(C)(C)C [Compound 378]

- activation at 10 µM [6]: > 600%
Compound: Cc1cccc(C)c1-c1cc2nc(n1)NS(=O)(=O)c1cccc(c1)C(=O)N(CC(=O)N1CCC(OC(C)C)C1)[C@H](CC(C)(C)C)CO2 (stereo partly shown) [Compound 201]

- EC50 (Table 10): < 1000 nM
- Emax [5]: > 60%
Compound: Cc1cccc(C)c1-c1cc2nc(n1)NS(=O)(=O)c1cccc(c1)C(=O)N(Cc1cccc(N3CCOCC3)n1)[C@H](CC(C)(C)C)CO2 [Compound 384]

- EC50 (HBE assay): < 1000 nM
- Emax [7]: > 60%
Compound: Cc1cccc(C)c1-c1cc2nc(n1)NS(=O)(=O)c1cccc(c1)C(=O)N(Cc1ncc(OC3CCOCC3)cc1F)[C@H](CC(C)(C)C)CO2 [Compound 1368]

- activation at 10 µM [4]: > 60%
Compound: Cc1cccc(C)c1-c1cc2nc(n1)NS(=O)(=O)c1cccc(c1)C(=O)N(CC1CCN(c3ccncc3)CC1)[C@H](CC(C)(C)C)CO2 [Compound 492]

Compound: Cc1cccc(C)c1-c1cc2nc(n1)NS(=O)(=O)c1cccc(c1)C(=O)N(Cc1nc(C(C)C)cn1COCC[Si](C)(C)C)[C@H](CC(C)(C)C)CO2 [Compound 265]
- activation at 10 µM [3]: > 600%

- EC50 (Table 12): < 1000 nM
- Emax [2]: > 60%
Compound: COCC(C)N(C)c1cncc(CN2C(=O)c3cccc(c3)S(=O)(=O)Nc3nc(cc(-c4c(C)cccc4C)n3)OC[C@H]2CC(C)(C)C)n1 (stereo partly shown) [Compound 444]

- EC50 (Table 11): < 1000 nM
- Emax [1]: > 60%
Compound: Cc1cccc(C)c1-c1cc2nc(n1)NS(=O)(=O)c1cccc(c1)C(=O)N(Cc1nccc(N(C)C3CCOCC3)n1)[C@H](CC(C)(C)C)CO2 [Compound 616]

- EC50 (Table 11): 1000 to 3000 nM
- Emax [1]: > 60%
Compound: Cc1cccc(C)c1-c1cc2nc(n1)NS(=O)(=O)c1cccc(c1)C(=O)N(Cc1nccc(N(C)C3CCCC3)n1)[C@H](CC(C)(C)C)CO2 [Compound 617]

- activation at 10 µM [6]: > 600%
Compound: Cc1cccc(C)c1-c1cc2nc(n1)NS(=O)(=O)c1cccc(c1)C(=O)N(CC(=O)N1CCC(c3ccccc3)C1)[C@H](CC(C)(C)C)CO2 (stereo partly shown) [Compound 191]

- activation at 10 µM [8]: < 30%
Compound: Cc1cccc(C)c1-c1cc2nc(n1)NS(=O)(=O)c1cccc(c1)C(=O)N(Cc1ccc(N3CCOCC3)cn1)C(CC(C)(C)C)CO2 (stereo not shown) [Compound 332]

- activation at 10 µM [6]: > 600%
Compound: Cc1cccc(C)c1-c1cc2nc(n1)NS(=O)(=O)c1cccc(c1)C(=O)N(Cc1c(F)cc(C3CCOCC3)cc1F)[C@H](CC(C)(C)C)CO2 [Compound 517]

- EC50 (Table 13): < 1000 nM
- Emax (Table 13, read-out: HBE Max Activity (%)): > 60%
Compound: COc1ccc(F)c(CN2C(=O)c3cccc(c3)S(=O)(=O)Nc3nc(cc(-c4c(C)cccc4C)n3)OC[C@H]2CC(C)(C)C)n1 [Compound 1066]

- EC50 (Table 12): < 1000 nM
- Emax [2]: > 60%
Compound: Cc1cccc(C)c1-c1cc2nc(n1)NS(=O)(=O)c1cccc(c1)C(=O)N(CC(=O)N(C)CC1CCCCC1)[C@H](CC(C)(C)C)CO2 [Compound 231]

- EC50 (Table 11): < 1000 nM
- Emax [1]: > 60%
Compound: Cc1cccc(C)c1-c1cc2nc(n1)NS(=O)(=O)c1cccc(c1)C(=O)N(Cc1cncc(OC(C)C)n1)[C@H](CC(C)(C)C)CO2 [Compound 894]

From US20240150377A1, “MODULATORS OF CYSTIC FIBROSIS TRANSMEMBRANE CONDUCTANCE REGULATOR” (VERTEX PHARMACEUTICALS INCORPORATED, priority 2020, published 2024)
